From patent publication EP1043986B1, “MIXTURE AND PHARMACEUTICAL COMPOSITION COMPRISING Z-4-HYDROXYTAMOXIFEN AND CYCLODEXTRIN” (priority 1997, dated 1999)

Test: 10-day stability test in water and in 96 % ethanol, room temperature, normal day light, capillary electrophoresis
Type: physicochemical
Conditions: 10-days storage in 96 % ethanol
Experimental: A 10-day stability test in water and in 96 % ethanol at room temperature and exposure to normal day light, using 4-hydroxytamoxifen and the 4-hydrorytamoxifen/ γ-cyclodextrin complex prepared according to example 1 was performed. The change of E/Z isomer ratio was analyzed with capillary electrophoresis.

Efficiency value (ratio of uncomplexed and complexed 4-hydroxytamoxifen re/z values): 4,65
Ratio re/z (room temperature, normal day light): 0,223
Substance: 1-(p-β-dimethylaminoethoxyphenyl)-1-(p-hydroxyphenyl)-2-phenylbut-1-en [4-Hydroxytamoxifen]
